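In this assay, cells in 96-well plates receive the compound at five concentrations for 48 hours. Endpoints are linearly interpolated between the surrounding concentrations. GI50: concentration for 50% inhibition of growth. TGI: total growth inhibition.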
Columns and labels:
Assay in all cases: NCI anticancer screen, dose series, 48 h
786-0 renal = tested on: 786-0 renal
A498 renal = tested on: A498 renal
A549 NSCLC = tested on: A549 NSCLC
ACHN renal = tested on: ACHN renal
BT-549 breast = tested on: BT-549 breast
CAKI-1 renal = tested on: CAKI-1 renal
CCRF-CEM leukemia = tested on: CCRF-CEM leukemia
COLO 205 colon = tested on: COLO 205 colon
DU-145 prostate = tested on: DU-145 prostate
EKVX NSCLC = tested on: EKVX NSCLC
HCC-2998 colon = tested on: HCC-2998 colon
HCT-116 colon = tested on: HCT-116 colon
HCT-15 colon = tested on: HCT-15 colon
HL-60(TB) leukemia = tested on: HL-60(TB) leukemia
HOP-62 NSCLC = tested on: HOP-62 NSCLC
HOP-92 NSCLC = tested on: HOP-92 NSCLC
HS 578T breast = tested on: HS 578T breast
HT29 colon = tested on: HT29 colon
IGROV1 ovarian = tested on: IGROV1 ovarian
K-562 leukemia = tested on: K-562 leukemia
KM12 colon = tested on: KM12 colon
LOX IMVI melanoma = tested on: LOX IMVI melanoma
M14 melanoma = tested on: M14 melanoma
MCF7 breast = tested on: MCF7 breast
MDA-MB-231 breast = tested on: MDA-MB-231 breast
MDA-MB-435 = tested on: MDA-MB-435
MOLT-4 leukemia = tested on: MOLT-4 leukemia
NCI-H226 lung = tested on: NCI-H226 lung
NCI-H460 lung = tested on: NCI-H460 lung
NCI-H522 lung = tested on: NCI-H522 lung
NCI/ADR-RES ovarian = tested on: NCI/ADR-RES ovarian
OVCAR-3 ovarian = tested on: OVCAR-3 ovarian
OVCAR-4 ovarian = tested on: OVCAR-4 ovarian
OVCAR-5 ovarian = tested on: OVCAR-5 ovarian
OVCAR-8 ovarian = tested on: OVCAR-8 ovarian
PC-3 prostate = tested on: PC-3 prostate
RPMI-8226 leukemia = tested on: RPMI-8226 leukemia
RXF 393 renal = tested on: RXF 393 renal
SF-268 CNS = tested on: SF-268 CNS
SF-295 CNS = tested on: SF-295 CNS
SF-539 CNS = tested on: SF-539 CNS
SK-MEL-2 melanoma = tested on: SK-MEL-2 melanoma
SK-MEL-28 melanoma = tested on: SK-MEL-28 melanoma
SK-MEL-5 melanoma = tested on: SK-MEL-5 melanoma
SK-OV-3 ovarian = tested on: SK-OV-3 ovarian
SN12C renal = tested on: SN12C renal
SNB-19 CNS = tested on: SNB-19 CNS
SNB-75 CNS = tested on: SNB-75 CNS
SR leukemia = tested on: SR leukemia
SW-620 colon = tested on: SW-620 colon
T-47D breast = tested on: T-47D breast
TK-10 renal = tested on: TK-10 renal
U251 CNS = tested on: U251 CNS
UACC-257 melanoma = tested on: UACC-257 melanoma
UACC-62 melanoma = tested on: UACC-62 melanoma
UO-31 renal = tested on: UO-31 renal

Structure (SMILES): Cc1ccc(S(=O)(=O)NC2=NCCN2C(=S)SN2CCn3c2nsc3=S)cc1
- GI50 (786-0 renal): 19.1 µM
- TGI (786-0 renal): 44.4 µM
- GI50 (A498 renal): 28.6 µM
- TGI (A498 renal): 68.7 µM
- GI50 (A549 NSCLC): 30.4 µM
- TGI (A549 NSCLC): 90.2 µM
- GI50 (ACHN renal): 6.56 µM
- TGI (ACHN renal): 19.6 µM
- GI50 (BT-549 breast): 23.4 µM
- TGI (BT-549 breast): 55.8 µM
- GI50 (CAKI-1 renal): 3.47 µM
- TGI (CAKI-1 renal): 14.6 µM
- GI50 (CCRF-CEM leukemia): 14 µM
- TGI (CCRF-CEM leukemia): 51.9 µM
- GI50 (COLO 205 colon): 6.62 µM
- TGI (COLO 205 colon): 21.2 µM
- GI50 (DU-145 prostate): 26.4 µM
- TGI (DU-145 prostate): > 100 µM
- GI50 (EKVX NSCLC): 27.7 µM
- TGI (EKVX NSCLC): > 100 µM
- GI50 (HCC-2998 colon): 21 µM
- TGI (HCC-2998 colon): 50.6 µM
- GI50 (HCT-116 colon): 13.7 µM
- TGI (HCT-116 colon): 28.8 µM
- GI50 (HCT-15 colon): 15.1 µM
- TGI (HCT-15 colon): 31.7 µM
- GI50 (HL-60(TB) leukemia): 11.2 µM
- TGI (HL-60(TB) leukemia): 55.6 µM
- GI50 (HOP-62 NSCLC): 22.4 µM
- TGI (HOP-62 NSCLC): 57.5 µM
- GI50 (HOP-92 NSCLC): 24.7 µM
- TGI (HOP-92 NSCLC): > 100 µM
- GI50 (HS 578T breast): 31.4 µM
- TGI (HS 578T breast): > 100 µM
- GI50 (HT29 colon): 29.9 µM
- TGI (HT29 colon): 97.5 µM
- GI50 (IGROV1 ovarian): 14.1 µM
- TGI (IGROV1 ovarian): 34.6 µM
- GI50 (K-562 leukemia): 14.8 µM
- TGI (K-562 leukemia): 42.4 µM
- GI50 (KM12 colon): 16.6 µM
- TGI (KM12 colon): 32.7 µM
- GI50 (LOX IMVI melanoma): 1.92 µM
- TGI (LOX IMVI melanoma): 4.25 µM
- GI50 (M14 melanoma): 15.2 µM
- TGI (M14 melanoma): 32.1 µM
- GI50 (MCF7 breast): 32.5 µM
- TGI (MCF7 breast): > 100 µM
- GI50 (MDA-MB-231 breast): 15.1 µM
- TGI (MDA-MB-231 breast): 38 µM
- GI50 (MDA-MB-435): 17.3 µM
- TGI (MDA-MB-435): 41.8 µM
- GI50 (MOLT-4 leukemia): 20.6 µM
- TGI (MOLT-4 leukemia): > 100 µM
- GI50 (NCI-H226 lung): 19.9 µM
- TGI (NCI-H226 lung): 50.6 µM
- GI50 (NCI-H460 lung): 31 µM
- TGI (NCI-H460 lung): > 100 µM
- GI50 (NCI-H522 lung): 5.01 µM
- TGI (NCI-H522 lung): 18.8 µM
- GI50 (NCI/ADR-RES ovarian): 31.8 µM
- TGI (NCI/ADR-RES ovarian): > 100 µM
- GI50 (OVCAR-3 ovarian): 10.5 µM
- TGI (OVCAR-3 ovarian): 27.9 µM
- GI50 (OVCAR-4 ovarian): 14 µM
- TGI (OVCAR-4 ovarian): 28.2 µM
- GI50 (OVCAR-5 ovarian): 20.1 µM
- TGI (OVCAR-5 ovarian): 40.8 µM
- GI50 (OVCAR-8 ovarian): 24.3 µM
- TGI (OVCAR-8 ovarian): 72.1 µM
- GI50 (PC-3 prostate): 17.2 µM
- TGI (PC-3 prostate): 51.7 µM
- GI50 (RPMI-8226 leukemia): 16.7 µM
- TGI (RPMI-8226 leukemia): 73.2 µM
- GI50 (RXF 393 renal): 8.17 µM
- TGI (RXF 393 renal): 20.9 µM
- GI50 (SF-268 CNS): 32.4 µM
- TGI (SF-268 CNS): 87.2 µM
- GI50 (SF-295 CNS): 18.2 µM
- TGI (SF-295 CNS): 50.8 µM
- GI50 (SF-539 CNS): 22 µM
- TGI (SF-539 CNS): 52.7 µM
- GI50 (SK-MEL-2 melanoma): 28.6 µM
- TGI (SK-MEL-2 melanoma): 89.2 µM
- GI50 (SK-MEL-28 melanoma): 17.2 µM
- TGI (SK-MEL-28 melanoma): 32.7 µM
- GI50 (SK-MEL-5 melanoma): 21.8 µM
- TGI (SK-MEL-5 melanoma): 50.3 µM
- GI50 (SK-OV-3 ovarian): 0.116 µM
- TGI (SK-OV-3 ovarian): 13.6 µM
- GI50 (SN12C renal): 19.4 µM
- TGI (SN12C renal): 46.9 µM
- GI50 (SNB-19 CNS): 28.6 µM
- TGI (SNB-19 CNS): 83.1 µM
- GI50 (SNB-75 CNS): 24.7 µM
- TGI (SNB-75 CNS): 52.9 µM
- GI50 (SR leukemia): 7.29 µM
- TGI (SR leukemia): 36.6 µM
- GI50 (SW-620 colon): 14.1 µM
- TGI (SW-620 colon): 40.7 µM
- GI50 (T-47D breast): 11.3 µM
- TGI (T-47D breast): 26.2 µM
- GI50 (TK-10 renal): 11.1 µM
- TGI (TK-10 renal): 24.7 µM
- GI50 (U251 CNS): 19.1 µM
- TGI (U251 CNS): 39 µM
- GI50 (UACC-257 melanoma): 19 µM
- TGI (UACC-257 melanoma): 43.4 µM
- GI50 (UACC-62 melanoma): 15.1 µM
- TGI (UACC-62 melanoma): 32.3 µM
- GI50 (UO-31 renal): 2.93 µM
- TGI (UO-31 renal): 11 µM

Source: PubChem BioAssay (NCI)
